Reference: ChEMBL document CHEMBL3507680, “University of Dundee, Gates Library screen for HepG2 cell viability”

Assay: Human HepG2 cell viability assay in 384 well format
Assay type: toxicity, cell-based
Design: dose 125 nL, time 70.5 hour; concentration not given beside the values
Settings: HepG2 cells, read-out: Inhibition

In the case of `COC(=O)[C@H]1CN(C(=O)c2cscn2)C[C@@H]1c1ccc(F)cc1`, the cytotoxicity at 70.5 h is reported as 0.296%.
For `O=C(CC(F)(F)F)N1CCC2(CCCN(c3nncs3)C2)C1` (stereo not given), the cytotoxicity at 70.5 h was -3.95%.
`CC(C)CN1C[C@@H]2CN(c3cnccn3)C[C@@H]2C1=O` gave a cytotoxicity at 70.5 h of 29.2%.
`CC(NC(=O)OC(C)(C)C)c1nnc(S(=O)(=O)Cc2ccc(Cl)cc2)o1` (stereo not given) showed a cytotoxicity at 70.5 h of 4.02%.
For `c1ccc(CN(Cc2ncc[nH]2)Cc2nccs2)cc1`, the cytotoxicity at 70.5 h was -14.7%.
In the case of `CCCn1ncc(C(=O)N2CCN(C(=O)c3ccc[nH]3)CC2)c1C`, the cytotoxicity at 70.5 h is reported as -7.32%.
With `Fc1cnc(N2CCOCC3(CCCNC3)C2)nc1` (stereo not given) the cytotoxicity at 70.5 h was 12.2%.
`Cc1ccc(F)cc1S(=O)(=O)NCc1cccc(C(=O)N2CCCC2)c1` showed a cytotoxicity at 70.5 h of -2.82%.
In the case of `C[C@]1(O)CN(Cc2ncccc2F)CC[C@@H]1Oc1cccc(F)c1`, the cytotoxicity at 70.5 h is reported as -5.53%.
In the case of `O=C(OCC1CCCN(C(=O)c2ccccc2)C1)c1cscn1` (stereo not given), the cytotoxicity at 70.5 h is reported as -88.6%.
In the case of `O=S(=O)(NCc1cccnc1OC1CCCC1)N1CCOCC1`, the cytotoxicity at 70.5 h is reported as -10.2%.
With `CCC[C@@H]1CN(C(=O)c2cc3ccccc3s2)C[C@H]1NS(C)(=O)=O` the cytotoxicity at 70.5 h was -2.51%.
Molecule `COc1ccccc1C(C(=O)O)N1CCCN(C2CCCC2)CC1` (stereo not given) has a cytotoxicity at 70.5 h of 16.1%.
`COc1cccc(-c2cc(NCc3cscn3)n(C)n2)c1` gave a cytotoxicity at 70.5 h of -7.72%.
Molecule `Cn1cnc(S(=O)(=O)NCCN2CCCCCC2)c1Cl` has a cytotoxicity at 70.5 h of 4.34%.
Molecule `COc1ccc(CNc2nncs2)cc1F` has a cytotoxicity at 70.5 h of -2.65%.
For `Cc1cccc(CN2CC[C@H]3OCC[C@@]3(C(=O)N3CCOCC3)C2)n1`, the cytotoxicity at 70.5 h was -4.06%.
With `Cc1nnc(CN(C)CC(=O)N2CCCN(C3CCCC3)CC2)n1C` the cytotoxicity at 70.5 h was -6.96%.
For `Cc1noc(C)c1CNC(=O)NCCC(=O)N1CCCc2ccccc21`, the cytotoxicity at 70.5 h was 3.77%.
`O=C(CC1CCCN1S(=O)(=O)N1CCCCC1)c1cccs1` (stereo not given) gave a cytotoxicity at 70.5 h of -3.32%.
Molecule `CCCc1nc(C)c(C(=O)NCCn2nc3ccccn3c2=O)s1` has a cytotoxicity at 70.5 h of 19.2%.
In the case of `CCC1=NC2(CCC(C(=O)Nc3ccc(C)nc3)CC2)C(=O)N1C` (stereo not given), the cytotoxicity at 70.5 h is reported as -2.35%.
Molecule `Cc1cccc(C(=O)N2CCCCC2c2ccc(CN(C)C)cc2)c1` (stereo not given) has a cytotoxicity at 70.5 h of -8.71%.
With `Cc1noc(CCCC(=O)N(CCC(=O)O)Cc2ccc(F)c(F)c2)n1` the cytotoxicity at 70.5 h was -3.72%.
In the case of `CC(=O)N1CCC(NC(C)c2cnn(-c3ccc(F)cc3F)c2C)CC1` (stereo not given), the cytotoxicity at 70.5 h is reported as -5.65%.
`CN1C(=O)CC[C@@H]2[C@H]1CCN2S(=O)(=O)Cc1ccccc1` gave a cytotoxicity at 70.5 h of 47.7%.
With `Cc1cc(C)c(S(=O)(=O)Nc2cccc3c2OCCO3)cc1C(=O)O` the cytotoxicity at 70.5 h was -27.2%.
`CC(c1cccnc1)N1CCN(CCc2ccccn2)CC1` (stereo not given) showed a cytotoxicity at 70.5 h of -0.575%.
In the case of `COCc1nc(CNc2cccc(-c3csc(C)n3)c2)cs1`, the cytotoxicity at 70.5 h is reported as -0.82%.
Molecule `CC1CCN(c2ncc(-c3ccccc3F)c(-c3nccn3C)n2)CC1` has a cytotoxicity at 70.5 h of -2.25%.
Molecule `CC(Nc1cnn(C)c(=O)c1Cl)c1ccc(F)c(F)c1` (stereo not given) has a cytotoxicity at 70.5 h of 39.8%.
Molecule `CCCN1CCC(N2CCN(c3cc(C)nc(C)c3)CC2)CC1` has a cytotoxicity at 70.5 h of 5.6%.
Molecule `CN1C2(CCN(Cc3ccc(F)cc3)C2)c2ccccc2S1(=O)=O` (stereo not given) has a cytotoxicity at 70.5 h of 13.5%.
With `CCn1cc(S(=O)(=O)N2CCN(S(=O)(=O)c3ccc(Br)s3)CC2)cn1` the cytotoxicity at 70.5 h was -12%.
Molecule `COCCN1CCCC2(CCN(c3cc(C)c(C#N)c(C)n3)C2)C1=O` (stereo not given) has a cytotoxicity at 70.5 h of 14.9%.
Molecule `NS(=O)(=O)CCNC(=O)C1(c2ccccc2)CC1` has a cytotoxicity at 70.5 h of -1.21%.
For `O=C(Nc1cnn(CC(F)F)c1)c1cccc(-n2cnnn2)c1`, the cytotoxicity at 70.5 h was -1.49%.
In the case of `O=C(C1CC=CC1)N1CCC2(CCN(Cc3cccc(F)c3)CC2)C1`, the cytotoxicity at 70.5 h is reported as -3.05%.
With `Cc1cnn(C2CCCN(C(=O)c3sccc3C#N)C2)c1` (stereo not given) the cytotoxicity at 70.5 h was 28.7%.
`CCCc1cnc(C)nc1NC(C)Cc1cnccn1` (stereo not given) gave a cytotoxicity at 70.5 h of -5.97%.
`Cc1c(NCCOCC(F)(F)F)cccc1C(=O)N1CCCC1` gave a cytotoxicity at 70.5 h of -10.8%.
`COc1ccc2cc(C3CN(C(=O)COC(C)C)CCO3)ccc2c1` (stereo not given) gave a cytotoxicity at 70.5 h of -2.81%.
`CNc1cc(C(=O)N2CCC3(CC2)Nc2ccccc2NC3=O)ccn1` showed a cytotoxicity at 70.5 h of -4.39%.
Molecule `CC(NC(=O)N1CCN(c2cccs2)CC1)c1ccc(C#N)cc1` (stereo not given) has a cytotoxicity at 70.5 h of -2.79%.
In the case of `CC(=O)N1CCC(c2c(CN(C)C)cnc3cc(C)nn23)CC1`, the cytotoxicity at 70.5 h is reported as 15.7%.
With `CNC(=O)C(NC(=O)c1ccn(C)c(=O)c1)c1ccccc1` (stereo not given) the cytotoxicity at 70.5 h was 33.4%.
With `Cc1nc(C2CN(C)CCO2)cc(N2CCSCC2)n1` (stereo not given) the cytotoxicity at 70.5 h was 26.1%.
`NC(=O)Cn1ccc(NC(=O)C2(c3cccc(Cl)c3)CC2)n1` showed a cytotoxicity at 70.5 h of -7.03%.
In the case of `COCCOc1ncccc1C(=O)N(C)c1ccc(OC)c(OC)c1`, the cytotoxicity at 70.5 h is reported as -11.7%.
Work on `O=C(CSC1=NS(=O)(=O)c2cc(F)ccc2N1)Nc1cccc(Cl)c1` yielded a cytotoxicity at 70.5 h of -2.86%.
`CNC(=O)CN1CCC(NC(=O)CC(C)CCc2ccccc2)CC1` (stereo not given) showed a cytotoxicity at 70.5 h of 12.1%.
Molecule `CCCn1ncc(C(=O)N(CCOC)Cc2c(C)nn(CC)c2C)c1C` has a cytotoxicity at 70.5 h of -7.73%.
Molecule `Cc1cc(C(=O)N[C@H]2CC[C@@]3(CCC(=O)N3)CC2)no1` has a cytotoxicity at 70.5 h of -6.09%.
`O=C(NCCn1cccn1)c1ccn(-c2cccc(F)c2)n1` gave a cytotoxicity at 70.5 h of -11.4%.
In the case of `Cc1cnc(-c2nc(C3CCN(Cc4ccccc4Cl)CC3)no2)cn1`, the cytotoxicity at 70.5 h is reported as -3.18%.
For `c1cc2c(cc1CSCc1noc(C3CC3)n1)OCCO2`, the cytotoxicity at 70.5 h was -13.8%.
`CSCC(C)(O)CNS(=O)(=O)c1cccc(Cl)c1` (stereo not given) showed a cytotoxicity at 70.5 h of -4.18%.
`c1cncc(CN2CCC(c3ccc4c(c3)OCO4)CC2)c1` showed a cytotoxicity at 70.5 h of 19.4%.
`COCCC1CN(Cc2cn(CCC(N)=O)c3ccccc23)CCO1` (stereo not given) gave a cytotoxicity at 70.5 h of -5.24%.
Work on `CCC[C@H]1CN(C2CCOCC2)C[C@@H]1NC(=O)CCc1cnccn1` yielded a cytotoxicity at 70.5 h of 6.02%.
For `CCN(CC)C(CNCc1cc(F)cc(F)c1)c1ccco1` (stereo not given), the cytotoxicity at 70.5 h was 20.8%.
In the case of `CNc1nnc(SCc2nnc(C(C)(C)C)o2)s1`, the cytotoxicity at 70.5 h is reported as 15.4%.
Work on `CNC(=O)[C@H]1C[C@H]2OCC[C@H]2N(Cc2cccc3ccccc23)C1` yielded a cytotoxicity at 70.5 h of -6.96%.
For `CNC(=O)C1(c2cnccn2)CCCN1C(=O)Cc1ccsc1` (stereo not given), the cytotoxicity at 70.5 h was -6.75%.
Work on `CN1CCN(C[C@H]2CC[C@@H](Cc3ccc(CN4CCCC4)cc3)O2)CC1` yielded a cytotoxicity at 70.5 h of -6.45%.
Molecule `CCc1nc(CN(C)C(=O)C2CCC(=O)N(CC3CCCCC3)C2)no1` (stereo not given) has a cytotoxicity at 70.5 h of -4.07%.
`CNC(=O)[C@@H]1[C@@H](c2ccccc2)CN2CCN(Cc3ccccn3)C[C@H]12` showed a cytotoxicity at 70.5 h of -7.27%.
With `Cc1cc(CN2C[C@@H]3CN(C(=O)c4ccco4)CCO[C@@H]3C2)no1` the cytotoxicity at 70.5 h was -5.36%.
Molecule `CC(=O)N1C[C@@H](F)[C@@H](OCc2nc3ccccc3o2)C1` has a cytotoxicity at 70.5 h of -3.68%.
In the case of `Cc1nc(CN(C)C(=O)c2cc(C)sc2NC(=O)C(C)(C)C)no1`, the cytotoxicity at 70.5 h is reported as -11.2%.
`c1cncc(C[C@@H]2CC[C@H](CN3CCCOCC3)O2)c1` showed a cytotoxicity at 70.5 h of -10.6%.
`CN(C)C(=O)c1cn[nH]c1C1(C)CCCN(Cc2ccccn2)C1` (stereo not given) gave a cytotoxicity at 70.5 h of -1.05%.
With `CCOCCn1c(=O)[nH]c2cc(C(=O)N(C)Cc3cc(C)[nH]n3)ccc21` the cytotoxicity at 70.5 h was -6.23%.
`CS(=O)(=O)NCC(=O)NC(Cc1ccccc1)C1CCCC1` (stereo not given) showed a cytotoxicity at 70.5 h of -4.4%.
Molecule `O=S(=O)(NCCNc1cc(-n2cccc2)ncn1)c1cccs1` has a cytotoxicity at 70.5 h of -2.52%.
`c1ccc(OCCN2CCc3c(ncn3C3CC3)C2)cc1` showed a cytotoxicity at 70.5 h of -4.85%.
With `CC1CCCN(CCCNC(=O)c2ccc(N(C)S(C)(=O)=O)cc2Cl)C1` (stereo not given) the cytotoxicity at 70.5 h was -2.33%.
For `CCOC(=O)c1nc(CC(=O)Nc2ccccc2)no1`, the cytotoxicity at 70.5 h was -17.6%.
`Cc1cncc(C(=O)N2CCCC(C(=O)CCc3ccccc3)C2)c1` (stereo not given) gave a cytotoxicity at 70.5 h of -5.02%.
With `CCN1CC2(CC1=O)CN(C(=O)NC)CCN(S(C)(=O)=O)C2` (stereo not given) the cytotoxicity at 70.5 h was -6.12%.
